Experiment [1] concerns the target T1, Steroid 5-alpha-reductase (Rattus norvegicus, UniProt P24008+P31214).
T1 sequence (P24008 whole entry): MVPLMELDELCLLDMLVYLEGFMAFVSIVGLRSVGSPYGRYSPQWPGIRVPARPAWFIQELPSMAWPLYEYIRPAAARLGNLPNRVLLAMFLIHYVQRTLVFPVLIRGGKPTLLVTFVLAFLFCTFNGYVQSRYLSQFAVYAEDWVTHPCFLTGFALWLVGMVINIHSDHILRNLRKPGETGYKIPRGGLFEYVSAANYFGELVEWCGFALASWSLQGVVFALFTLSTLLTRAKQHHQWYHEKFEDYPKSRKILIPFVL
T1 sequence (P31214 whole entry): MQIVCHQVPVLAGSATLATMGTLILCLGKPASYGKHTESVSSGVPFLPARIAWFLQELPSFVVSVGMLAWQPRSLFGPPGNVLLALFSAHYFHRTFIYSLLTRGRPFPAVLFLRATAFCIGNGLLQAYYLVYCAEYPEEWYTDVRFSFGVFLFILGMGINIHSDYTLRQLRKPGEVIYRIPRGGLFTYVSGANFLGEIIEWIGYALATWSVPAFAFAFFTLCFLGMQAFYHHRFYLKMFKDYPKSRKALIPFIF
Nature of the experiment: Inhibitory activity against prostatic 5-alpha reductase in Sprague-Dawley rat. The experiment is classed as protein assay.

In experiment [2] the target is Adrenergic receptor alpha-1 (Oryctolagus cuniculus). Nature of the experiment: Inhibition of phenylephrine-induced contractions in white rabbit prostate.

These results are taken from ChEMBL document CHEMBL1130643, “Synthesis of benzanilide derivatives as dual acting agents with alpha 1-adrenoceptor antagonistic action and steroid 5-alpha reductase inhibitory activity” (Bioorg Med Chem Lett, 1998).

With `COc1ccccc1N1CCN(CCCOc2ccc(C(=O)Nc3ccccc3OCCCC(=O)O)cc2)CC1`, the IC50 in experiment [1] stood at 41 µM. Further, the pA2 in experiment [2] is reported as 7.

Turning to `COc1ccccc1NC(=O)c1ccc(OCCCN2CCN(c3ccccc3OC)CC2)cc1`, the pA2 in experiment [2] is 7.1.

Compound `COc1ccccc1N1CCN(CCC(Oc2ccc(NC(=O)c3ccccc3OCCCC(=O)O)cc2)c2ccc(C)cc2)CC1` (stereo not given) displayed a concentration for half-maximal inhibition (IC50) in experiment [1] of 0.44 µM. This compound also had a pA2 in experiment [2] of 7.1.

`COc1ccccc1N1CCN(CCC(Oc2ccc(NC(=O)c3ccccc3OCCCC(=O)O)cc2)c2ccccc2)CC1` (stereo not given) returned an IC50 in experiment [1] of 0.73 µM. This compound gave a pA2 in experiment [2] of 7.1.

`COc1ccccc1N1CCN(CCCCCCOc2ccc(C(=O)Nc3ccccc3OCCCC(=O)O)cc2)CC1` registered an IC50 in experiment [1] of 9.5 µM. In experiment [2], this compound had a pA2 of 7.

In experiment [1], `COc1ccccc1N1CCN(CCOc2ccc(C(=O)Nc3ccccc3OCCCC(=O)O)cc2)CC1` registered a half-inhibitory concentration (IC50) of 29 µM. In experiment [2], this compound returned a pA2 of 6.6.

Compound `COc1ccccc1N1CCN(CCC(Oc2ccc(C(=O)Nc3ccccc3OCCCC(=O)O)cc2)c2ccc(Br)cc2)CC1` (stereo not given) returned an IC50 in experiment [1] of 0.21 µM. In experiment [2], this compound had a pA2 of 7.

With `COc1ccc(C(CCN2CCN(c3ccccc3OC)CC2)Oc2ccc(C(=O)Nc3ccccc3OCCCC(=O)O)cc2)cc1` (stereo not given), the IC50 in experiment [1] was 0.17 µM. The compound further had a pA2 in experiment [2] of 6.7.

In turn, `COc1ccccc1N1CCN(CCCCC(Oc2ccc(C(=O)Nc3ccccc3OCCCC(=O)O)cc2)c2ccccc2)CC1` (stereo not given) returned an IC50 in experiment [1] of 0.91 µM. This compound registered a pA2 in experiment [2] of 6.6.

Regarding `COc1ccccc1N1CCN(CCCC(Oc2ccc(C(=O)Nc3ccccc3OCCCC(=O)O)cc2)c2ccccc2)CC1` (stereo not given), the IC50 in experiment [1] stood at 0.75 µM. In addition, the pA2 in experiment [2] is 6.5.

Turning to `COc1ccccc1N1CCN(CCCCOc2ccc(C(=O)Nc3ccccc3OCCCC(=O)O)cc2)CC1`, the IC50 in experiment [1] came out at 43 µM. The compound also returned a pA2 in experiment [2] of 7.1.

In experiment [1], `COc1ccccc1N1CCN(CCC(Oc2ccc(NC(=O)c3ccccc3OCCCC(=O)O)cc2)c2ccc(CC(C)C)cc2)CC1` (stereo not given) came in with a half-inhibitory concentration (IC50) of 0.096 µM. This compound showed a pA2 in experiment [2] of 5.2.

In turn, `COc1ccccc1N1CCN(CCC(Oc2ccc(C(=O)Nc3ccccc3OCCCC(=O)O)cc2)c2ccc(CC(C)C)cc2)CC1` (stereo not given) had an IC50 in experiment [1] of 0.039 µM. The pA2 in experiment [2] turned out to be 5.7.

On to `COc1ccccc1N1CCN(CCC(Oc2ccc(C(=O)Nc3ccccc3OCCCC(=O)O)cc2)c2ccccc2)CC1` (stereo not given), for which the IC50 in experiment [1] was 1 µM. This compound also came in with a pA2 in experiment [2] of 7.6.

Turning to `COc1ccccc1N1CCN(CCC(Oc2ccc(C(=O)Nc3ccccc3OCCCC(=O)O)cc2)c2ccc(C)cc2)CC1` (stereo not given), in experiment [1], the half-maximal inhibitory concentration (IC50) worked out at 0.067 µM. Further, the pA2 in experiment [2] is listed as 7.8.

The compound `CCc1ccc(C(CCN2CCN(c3ccccc3OC)CC2)Oc2ccc(C(=O)Nc3ccccc3OCCCC(=O)O)cc2)cc1` (stereo not given) gave an IC50 in experiment [1] of 0.07 µM. The pA2 in experiment [2] is 7.4.

With `CCc1ccc(C(CCN2CCN(c3ccccc3OC)CC2)Oc2ccc(NC(=O)c3ccccc3OCCCC(=O)O)cc2)cc1` (stereo not given), in experiment [1], the half-maximal inhibitory concentration (IC50) was 0.13 µM. Besides, in experiment [2], the pA2 is 6.7.

In turn, `COc1ccccc1N1CCN(CCC(Oc2ccc(C(=O)Nc3ccccc3OCCCC(=O)O)cc2)c2cccc(C)c2)CC1` (stereo not given) had an IC50 in experiment [1] of 0.36 µM. Also, in experiment [2], the pA2 is 6.6.

The IC50 is the midpoint of a concentration-inhibition curve. A high value points to lower potency. A word on the pA2: it is a measure of antagonist potency on a negative log scale. A lower pA2 goes with a weaker antagonist.
